Laboratory results: ChEMBL document CHEMBL5634161, “Discovery of benzamide-based PI3K/HDAC dual inhibitors with marked pro-apoptosis activity in lymphoma cells” (Eur J Med Chem, 2023)

Columns and labels:
[1] = target: Histone deacetylase 8 (Homo sapiens, UniProt Q9BY41); experiment: Inhibition of HDAC8 (unknown origin) using Boc-Lys(acetyl)-AMC as substrate preincubated for 1 hrs followed by substrate addition and measured after 2 hrs by spectrophotometer based fluorometric assay
[2] = Clearance in ICR mouse at 1 mg/kg, iv measured after 24 hrs by LC-MS/MS analysis; assay type: ADME, organism-based; conditions: in vivo
[3] = system: JeKo-1; experiment: Induction of apoptosis in human JeKo-1 cells assessed as late apoptotic cells at 0.5 uM incubated for 48 hrs by Annexin-V/FITC and PI staining based flow cytometric analysis (reference value: 3.66%); assay type: functional

Chain of Histone deacetylase 8 (Q9BY41 whole entry): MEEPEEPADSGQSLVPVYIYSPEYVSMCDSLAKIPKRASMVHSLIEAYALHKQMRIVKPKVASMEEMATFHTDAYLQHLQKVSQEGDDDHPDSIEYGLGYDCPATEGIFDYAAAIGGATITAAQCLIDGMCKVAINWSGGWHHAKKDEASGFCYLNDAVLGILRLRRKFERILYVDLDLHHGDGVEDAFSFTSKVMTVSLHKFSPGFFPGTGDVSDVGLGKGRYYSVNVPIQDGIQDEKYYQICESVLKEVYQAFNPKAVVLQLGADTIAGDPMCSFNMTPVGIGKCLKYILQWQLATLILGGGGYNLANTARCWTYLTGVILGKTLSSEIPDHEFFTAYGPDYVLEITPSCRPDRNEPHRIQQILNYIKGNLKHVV

IC50 [1]: > 10 µM | clearance [2]: 6.02 mL/min/kg
Structure (SMILES): COc1nc(-c2ccc(NC(=O)Nc3ccc(C(=O)NCCCCCC(=O)Nc4ccccc4N)cc3)cc2)nc(N2CCOCC2)n1
Activity [3]: 32.9%
